Like-named read-outs stand apart in the source and are kept apart here.
Experiments:
Recombinant human HDAC1 = molecular target: T1, Recombinant human HDAC1 (Homo sapiens, UniProt Q13547); assay: Human HDAC enzyme inhibitor Fluor-de-Lys assay, HDAC1; type: biochemical
T1 construct: FLAG (C); made in house
Method in brief: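 Fluor-de-Lys format at room temperature (23° C.): compounds titrated 10-point, 1:3, preincubated with HDAC before substrate addition; HDAC1 run at 0.3 nM enzyme with 20 μM BML-KI104. Developer with excess HDAC inhibitor ends the reaction, and trypsin-liberated AMC fluorescence is the read-out.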

KARN cells (Jurkat 2C4) = assay: cells; type: cell-based; conditions: Homo sapiens, Jurkat
Method in brief: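 Jurkat 2C4 (KARN) cells dosed with test compounds up to 40 μM final, 0.4% DMSO, overnight at 5% CO2; luciferase read by Steady-Glo luminescence after 10 min at room temperature. DMSO set as 0% and 2 μM SAHA as 100% induction; 4-parameter fit of percent activation.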

[1] = recombinant human HDAC1, Fluor-de-Lys assay
[2] = read-out: Karn EC50 (nM) 0.1% NHS, 0.1% normal human serum, luciferase induction, 100% = 2 μM SAHA
[3] = read-out: Karn EC50 (nM) 5% NHS, 5% normal human serum, luciferase induction, 100% = 2 μM SAHA
[4] = read-out: Karn EC50 (nM) 0.1% NHS, 0.1% normal human serum
[5] = read-out: Karn EC50 (nM) 5% NHS, 5% normal human serum

T1 sequence (Q13547 whole entry): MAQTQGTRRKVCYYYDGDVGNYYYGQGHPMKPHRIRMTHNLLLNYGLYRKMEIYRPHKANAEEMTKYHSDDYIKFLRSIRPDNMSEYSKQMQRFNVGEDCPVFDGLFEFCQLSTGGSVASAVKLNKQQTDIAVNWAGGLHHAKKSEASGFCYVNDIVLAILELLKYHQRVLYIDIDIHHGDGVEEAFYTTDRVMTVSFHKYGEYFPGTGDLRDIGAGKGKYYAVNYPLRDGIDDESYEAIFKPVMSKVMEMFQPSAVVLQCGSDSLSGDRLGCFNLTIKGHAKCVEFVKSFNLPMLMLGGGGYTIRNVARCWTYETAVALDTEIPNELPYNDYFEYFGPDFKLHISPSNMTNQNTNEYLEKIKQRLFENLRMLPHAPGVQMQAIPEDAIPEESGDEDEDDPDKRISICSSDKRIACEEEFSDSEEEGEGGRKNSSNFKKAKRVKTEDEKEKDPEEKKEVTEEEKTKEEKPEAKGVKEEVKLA

Compound	IC50 (Recombinant human HDAC1; [1]) [nM]	EC50 (KARN cells (Jurkat 2C4); [2]) [nM]	EC50 (KARN cells (Jurkat 2C4); [3]) [nM]	IC50 (Recombinant human HDAC1) [nM]	EC50 (KARN cells (Jurkat 2C4); [4]) [nM]	EC50 (KARN cells (Jurkat 2C4); [5]) [nM]
CCC(=O)CCCCCC(NC(=O)C1CC12CCN(CC)CC2)c1nc(-c2ccc(F)cc2)[nH]c1-c1ccnn1C (centres unmarked) [Compound 253]	30.4	1870	2340	–	–	–
CCC(=O)CCCCC[C@H](NC(=O)[C@H]1CC12CCN(C)CC2)c1nc(Cl)c(-c2cc3ccccc3nc2O)[nH]1 [Compound 81, (1S)—N-{(1S)-1-[4-chloro-5-(2-hydroxyquinolin-3-yl)-1H-imidazol-2-yl]-7-oxononyl}-6-methyl-6-azaspiro[2.5]octane-1-carboxamide]	–	–	–	88.2	6430	10700
CCC(=O)CCCCC[C@H](NC(=O)C1=NOC2(CCN(CC3CC3)CC2)C1)c1ncc(-c2cc3ccc(=O)n(C)c3cc2OC)o1 [Compound 236]	0.36	442	476	–	–	–
CCC(=O)CCCCC[C@H](NC(=O)C1=NOC2(CCN(CC3CC3)CC2)C1)c1ncc(-c2cc3ccc(C)nc3cc2OC)o1 [Compound 225]	0.6	217	247	–	–	–
CCC(=O)CCCCC[C@H](NC(=O)[C@H]1CC12CCN(C)CC2)c1ncc(-c2ccc3nc(C)ccc3c2)o1 [Compound 80]	–	–	–	2.89	435	501
CCC(=O)CCCCC[C@H](NC(=O)C1=NOC2(CCN(CC)CC2)C1)c1ncc(-c2cc3ccc(C)nc3cc2F)[nH]1 [Compound 233]	3.59	166	230	–	–	–
CCC(=O)CCCCC[C@H](NC(=O)[C@H]1CC12CCN(CC)CC2)c1ncc(-c2ccc(-c3nccs3)cc2)o1 [Compound 93]	–	–	–	7.15	688	736
CCC(=O)CCCCC[C@H](NC(=O)[C@H]1CC12CCN(C)CC2)c1ncc(-c2ccc(C)nc2OC)[nH]1 [Compound 268]	3.89	205	330	–	–	–
CCC(=O)CCCCC[C@H](NC(=O)[C@H]1CC12CCN(C)CC2)c1ncc(-c2ccc3c(c2)c2ccccc2n3C)[nH]1 [Compound 265]	5.14	142	370	–	–	–
CCC(=O)CCCCC[C@H](NC(=O)[C@H]1CC12CCN(CC)CC2)c1ncc(-c2cnc3cc(C(F)(F)F)ccc3c2)[nH]1 [Compound 341]	0.42	44	70	–	–	–
CCC(=O)CCCCC[C@H](NC(=O)[C@H]1CC12CCN(CC)CC2)c1ncc(-c2ccc(-c3ncco3)cc2)o1 [Compound 94]	–	–	–	9.13	502	549
CCC(=O)CCCCC[C@H](NC(=O)CC1CC2(C1)CN(C)C2)c1ncc(-c2cc3ccccc3nc2OC)[nH]1 [Compound 314]	1.03	131	811	–	–	–
CCC(=O)CCCCC[C@H](NC(=O)[C@H]1CC12CCN(C)CC2)c1ncc(-c2ccc3nc(C(F)(F)F)ccc3c2)o1 [Compound 78, (1S)-6-methyl-N-[(1S)-7-oxo-1-{5-[2-(trifluoromethyl)quinolin-6-yl]-1,3-oxazol-2-yl}nonyl]-6-azaspiro[2.5]octane-1-carboxamide]	–	–	–	18.3	911	1440
CCC(=O)CCCCC[C@H](NC(=O)C1NC(=O)CC12CN(C)C2)c1ncc(-c2cc3ccccc3nc2OC)[nH]1 (some centres unmarked) [Compound 317]	0.87	591	1720	–	–	–
CCC(=O)CCCCC[C@H](NC(=O)CC1CC2(C1)CN(C)C2)c1nnc(-c2cc3ccccc3nc2OC)o1 [Compound 308]	27.3	2690	3700	–	–	–
CCC(=O)CCCCC[C@H](NC(=O)C1CC12CCNCC2)c1nnc(-c2cc3ccccc3nc2OC)o1 (some centres unmarked) [Compound 303]	17.2	2430	4260	–	–	–
CCC(=O)CCCCC[C@H](NC(=O)[C@@H]1CC12CN(C)C2)c1ncc(-c2cc3ccc(C)nc3cc2OC)o1 (single isomer, unassigned) [Compound 231]	1.26	589	535	–	–	–
CCC(=O)CCCCC[C@H](NC(=O)CC1CC2(CNC2)C1)c1nnc(-c2cc3ccccc3nc2OC)o1 [Compound 301]	24.6	24200	–	–	–	–

Compound	IC50 (Recombinant human HDAC1; [1]) [nM]	EC50 (KARN cells (Jurkat 2C4); [2]) [nM]	EC50 (KARN cells (Jurkat 2C4); [3]) [nM]	IC50 (Recombinant human HDAC1) [nM]	EC50 (KARN cells (Jurkat 2C4); [4]) [nM]	EC50 (KARN cells (Jurkat 2C4); [5]) [nM]
CCC(=O)CCCCC[C@H](NC(=O)[C@H]1CC12CCN(C)CC2)c1ncc(-c2ccnc(N3CCOCC3)c2F)[nH]1 [Compound 261]	25.2	1380	1500	–	–	–
CCC(=O)CCCCC[C@H](N)c1ncc(-c2cc3ccc(=O)n(C)c3cc2OC)o1 [Compound 224]	38.7	5000	6970	–	–	–
CCC(=O)CCCCC[C@H](NC(=O)C1=NOC2(CCN(C)CC2)C1)c1ncc(-c2cc3cccnc3cc2OC)o1 [Compound 223]	1.54	272	559	–	–	–
CCC(=O)CCCCC[C@H](NC(=O)C1=NOC2(CCN(CC3CC3)CC2)C1)c1ncc(-c2cc3ccc(C)nc3cc2F)[nH]1 [Compound 234]	0.56	160	262	–	–	–
CN1CCC2(CC1)C[C@@H]2C(=O)N[C@@H](CCCCCC(=O)CC1CC1)c1ncc(-c2ccc(F)cc2)[nH]1 [Compound 84]	–	–	–	9.95	632	1180
CCC(=O)CCCCC[C@H](NC(=O)[C@H]1CC12CCN(C)CC2)c1ncc(-c2ccc(F)cc2)[nH]1 [Compound 280]	30	1020	919	–	–	–
CCC(=O)CCCCC[C@H](NC(=O)[C@H]1CC12CCN(C)CC2)c1ncc(-c2ccc(-c3cccnc3)nc2)[nH]1 [Compound 262]	4.42	773	851	–	–	–
CCC(=O)CCCCC[C@H](NC(=O)C1=NOC2(CCN(C)CC2)C1)c1ncc(-c2cc3ccc(C)nc3cc2F)[nH]1 [Compound 232]	1.33	144	248	–	–	–
CCC(=O)CCCCC[C@H](NC(=O)C1=NOC2(CCN(C)CC2)C1)c1ncc(-c2ccc(-c3cccnc3)cc2OC)o1 [Compound 222, N-{(1S)-1-[5-(2-methoxy-4-pyridin-3-ylphenyl)-1,3-oxazol-2-yl]-7-oxononyl}-8-methyl-1-oxa-2,8-diazaspiro[4.5]dec-2-ene-3-carboxamide]	1.61	298	364	–	–	–
CCC(=O)CCCCC[C@H](NC(=O)[C@H]1CC12CCN(C)CC2)c1ncc(-c2cn(C)c3ccccc23)[nH]1 [Compound 264]	1.79	78	143	–	–	–
CCC(=O)CCCCC[C@H](NC(=O)CC1CC2(C1)CN(C(C)=O)C2)c1ncc(-c2ccccc2)[nH]1 [Compound 300, (S)-2-(2-acetyl-2-azaspiro[3.3]heptan-6-yl)-N-(7-oxo-1-(5-phenyl-1H-imidazol-2-yl)nonyl)acetamide]	199	9210	10200	–	–	–
CCC(=O)CCCCC[C@@H](NC(=O)C1CCC2(CC1)CNC2)c1ncc(-c2ccccc2)[nH]1 [Compound 298]	36.5	7010	11800	–	–	–
CCC(=O)CCCCC[C@H](NC(=O)[C@H]1CC12CCN(CC1CC1)CC2)c1ncc(-c2cc3ccn(C)c(=O)c3cc2OC)o1 [Compound 229]	0.09	31	29	–	–	–
CCC(=O)CCCCC[C@H](NC(=O)C1CC12CCN(CC)CC2)c1nc(-c2ccc(F)cc2)[nH]c1-c1ccsc1 (some centres unmarked) [Compound 250]	80.7	3730	4100	–	–	–
CCC(=O)CCCCC[C@H](NC(=O)[C@H]1CC12CCN(C)CC2)c1nnc(-c2cc3ccccc3nc2OC)o1 [Compound 306]	12.9	690	691	–	–	–
CCC(=O)CCCCC[C@H](NC(=O)C1CC12CC1CCC(C2)N1C)c1ncc(-c2ccc3ncccc3c2)[nH]1 (single isomer, unassigned) [Compound 242]	3.94	1690	2770	–	–	–
CCC(=O)CCCCC[C@H](NC(=O)CC1CC2(C1)CN(C)C2)c1ncc(-c2ccccc2)[nH]1 [Compound 307]	62.9	3700	2570	–	–	–
